Laboratory results: patent publication US20220313701A1, “MODULATORS OF TREX1” (Constellation Pharmaceuticals, Inc., priority 2019, published 2022)

What was measured:
full length human TREX1 = biological target: T1, full length human TREX1 (Homo sapiens, UniProt Q9NSU2); assay: TREX1 Biochemical Assay (fluorescence assay, degradation of dsDNA substrate); details: 150 pM TREX1, 60 nM dsDNA substrate, 25 minutes at room temperature
T1 construct: N-terminally His-Tev tagged full length human TREX1; His-Tev (His tag with TEV site) (N); made in house; host or cells: E. coli
T1 sequence (Q9NSU2 1-314): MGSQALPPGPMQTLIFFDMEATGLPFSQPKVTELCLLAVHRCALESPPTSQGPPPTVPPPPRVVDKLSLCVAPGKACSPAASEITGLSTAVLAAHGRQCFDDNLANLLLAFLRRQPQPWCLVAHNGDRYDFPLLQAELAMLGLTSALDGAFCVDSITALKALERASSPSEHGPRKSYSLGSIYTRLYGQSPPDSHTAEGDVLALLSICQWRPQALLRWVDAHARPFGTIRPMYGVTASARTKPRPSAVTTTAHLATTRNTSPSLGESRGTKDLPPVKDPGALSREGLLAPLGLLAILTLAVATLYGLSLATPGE
Method: Degradation of the dsDNA liberates free fluorophore to produce a fluorescent signal. Specifically, 7.5 μL of N-terminally His-Tev tagged full length human TREX1 (expressed in E. coli and purified in house) in reaction buffer (50 mM Tris (pH 7.4), 150 mM NaCl, 2 mM DTT, 0.1 mg/mL BSA, 0.01% (v/v) Tween-20 and either 100 mM MgCl2) was added to a 384-well Black ProxiPlate Plus (Perkin Elmer) which already contained compound (150 nL) at varying concentrations as a 10 point dose-response in DMSO. To this was added 7.5 μL of dsDNA substrate (Strand A: 5′ TEX615/GCT AGG CAG 3′; Strand B: 5′ CTG CCT AGC/IAbRQSp (Integrated DNA Technologies)) in reaction buffer. Final concentrations were 150 pM TREX1, 60 nM dsDNA substrate in reaction buffer with 1.0% DMSO (v/v). After 25 minutes at room temperature, reactions were quenched by the addition of 5 μL of stop buffer (same as reaction buffer plus 200 mM EDTA). Final concentrations in the quenched reaction were 112.5 pM TREX1, 45 nM DNA and 50 mM EDTA in a volume of 20 μL. After a 5-minute incubation at room temperature, plates were read in a laser sourced Envision (Perkin-Elmer), measuring fluorescence at 615 nm following excitation w/570 nm light. IC50 values were calculated by comparing the measured fluorescence at 615 nm ratio relative to control wells pre-quenched w/stop buffer (100% inhibition) and no inhibitor (0% inhibition) controls as using non-linear least square four parameter fits and either Genedata or GraphPad Prism (GraphPad Software, Inc.).

[1] = biological target: T2, human TREX2 (residues M44-A279) (Homo sapiens, UniProt Q9BQ50); assay: TREX2 Biochemical Assay (fluorescence assay, degradation of dsDNA substrate); details: 2.5 nM TREX2, 60 nM dsDNA substrate, 25 minutes at room temperature
T2 construct: human TREX2 (residues M44-A279, expressed in E. coli); His-Tev (His tag with TEV site) (N); made in house; host or cells: E. coli
T2 sequence (Q9BQ50 44-279 isoform Q9BQ50-1): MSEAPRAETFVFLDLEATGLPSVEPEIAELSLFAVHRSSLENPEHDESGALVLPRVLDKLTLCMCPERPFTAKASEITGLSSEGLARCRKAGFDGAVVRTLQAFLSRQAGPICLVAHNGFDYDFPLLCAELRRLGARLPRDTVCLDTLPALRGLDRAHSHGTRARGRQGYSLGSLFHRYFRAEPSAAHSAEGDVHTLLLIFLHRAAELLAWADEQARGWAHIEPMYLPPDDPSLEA
Method: Degradation of the dsDNA liberates free fluorophore to produce a fluorescent signal. Specifically, 7.5 μL of N-terminally His-Tev tagged human TREX2 (residues M44-A279, expressed in E. coli and purified in house) in reaction buffer (50 mM Tris (pH 7.4), 150 mM NaCl, 2 mM DTT, 0.1 mg/mL BSA, 0.01% (v/v) Tween-20 and 100 mM MgCl2) was added to a 384-well Black ProxiPlate Plus (Perkin Elmer) which already contained compound (150 nL) at varying concentrations as a 10 point dose-response in DMSO. To this was added 7.5 μL of dsDNA substrate (Strand A: 5′ TEX615/GCT AGG CAG 3′; Strand B: 5′ CTG CCT AGC/IAbRQSp (IDT)) in reaction buffer. Final concentrations were 2.5 nM TREX2, 60 nM dsDNA substrate in reaction buffer with 1.0% DMSO (v/v). After 25 minutes at room temperature, reactions were quenched by the addition of 5 μL of stop buffer (same as reaction buffer plus 200 mM EDTA). Final concentrations in the quenched reaction mixture were […] TREX2, 45 nM DNA and 50 mM EDTA in a volume of 20 μL. After a 5-minute incubation at room temperature, plates were read in a laser sourced Envision (Perkin-Elmer), measuring fluorescence at 615 nm following excitation w/570 nm light. IC50 values were calculated by comparing the measured fluorescence at 615 nm ratio relative to control wells pre-quenched w/stop buffer (100% inhibition) and no inhibitor (0% inhibition) controls as using non-linear least square four parameter fits and either Genedata or GraphPad Prism (GraphPad Software, Inc.).

IC50 (full length human TREX1)	IC50 [1]	Compound
< 0.1 µM	10 to 100 µM	Cc1nn(C(C)C)cc1-c1cncc(N2CCC(O)(c3ccc(F)c(F)c3)CC2)n1 [Example 48, 4-(3,4-difluorophenyl)-1-(6-(1-isopropyl-3-methyl-1H-pyrazol-4-yl)pyrazin-2-yl)piperidin-4-ol]
1 to 10 µM	> 100 µM	Cc1nn(C)cc1-c1cc(N2CCC(O)(c3ccc(F)c(F)c3)CC2)ccn1 [Example 49, 4-(3,4-difluorophenyl)-1-(2-(1,3-dimethyl-1H-pyrazol-4-yl)pyridin-4-yl)piperidin-4-ol]
> 10 µM	> 100 µM	Cn1nc(C(F)(F)F)cc1-c1cncc(N2CCC(O)(c3ccc(F)c(F)c3)CC2)n1 [Example 50, 4-(3,4-difluorophenyl)-1-(6-(1-methyl-3-(trifluoromethyl)-1H-pyrazol-5-yl)pyrazin-2-yl)piperidin-4-ol]
0.1 to 1 µM	> 100 µM	Cc1nn(C)cc1-c1ccnc(N2CCC(O)(c3ccc(F)c(F)c3)CC2)n1 [Example 51, 4-(3,4-difluorophenyl)-1-(4-(1,3-dimethyl-1H-pyrazol-4-yl)pyrimidin-2-yl)piperidin-4-ol]
1 to 10 µM	> 100 µM	Cc1noc(C)c1-c1cncc(N2CCC(O)(c3ccc(F)c(F)c3)CC2)n1 [Example 52, 4-(3,4-difluorophenyl)-1-(6-(3,5-dimethylisoxazol-4-yl)pyrazin-2-yl)piperidin-4-ol]
1 to 10 µM	> 100 µM	Cc1cc(-c2cncc(N3CCC(O)(c4ccc(F)c(F)c4)CC3)n2)n(C)n1 [Example 53, 4-(3,4-difluorophenyl)-1-(6-(1,3-dimethyl-1H-pyrazol-5-yl)pyrazin-2-yl)piperidin-4-ol]
1 to 10 µM	> 100 µM	Cc1nn(C)cc1-c1nccc(N2CCC(O)(c3ccc(F)c(F)c3)CC2)n1 [Example 54, 4-(3,4-difluorophenyl)-1-(2-(1,3-dimethyl-1H-pyrazol-4-yl)pyrimidin-4-yl)piperidin-4-ol]
> 10 µM	> 100 µM	Cc1nn(C)cc1-c1ccnc(N2CCC(O)(c3ccc(F)c(F)c3)CC2)c1 [Example 55, 4-(3,4-difluorophenyl)-1-(4-(1,3-dimethyl-1H-pyrazol-4-yl)pyridin-2-yl)piperidin-4-ol]
0.1 to 1 µM	> 100 µM	Cc1nn(C)cc1-c1cncc(N2CCC(O)(c3ccc(F)cc3)C(F)(F)C2)n1 (stereo not shown) [Example 56, 1-(6-(1,3-dimethyl-1H-pyrazol-4-yl)pyrazin-2-yl)-3,3-difluoro-4-(4-fluorophenyl)piperidin-4-ol]
< 0.1 µM	> 100 µM	Cc1nc(-c2cn(C)nc2C)cc(N2CCC(O)(c3ccc(F)c(F)c3)CC2)n1 [Example 57, 4-(3,4-difluorophenyl)-1-(6-(1,3-dimethyl-1H-pyrazol-4-yl)-2-methylpyrimidin-4-yl)piperidin-4-ol]
< 0.1 µM	10 to 100 µM	Cc1nn(C)cc1-c1cc(N2CCC(O)(c3ccc(F)c(F)c3)CC2)ncn1 [Example 58, 4-(3,4-difluorophenyl)-1-(6-(1,3-dimethyl-1H-pyrazol-4-yl)pyrimidin-4-yl)piperidin-4-ol]
1 to 10 µM	> 100 µM	Cc1nn(C)cc1-c1cc(N2CCC(O)(c3ccc(F)c(F)c3)CC2)nc(-c2ccccc2)n1 [Example 59, 4-(3,4-difluorophenyl)-1-(6-(1,3-dimethyl-1H-pyrazol-4-yl)-2-phenylpyrimidin-4-yl)piperidin-4-ol]
1 to 10 µM	> 100 µM	Cn1cc(-c2cc(-c3cnn(C)c3)nc(N3CCC(O)(c4cccc(F)c4)CC3)c2)cn1 [Example 60, 1-(4,6-bis(1-methyl-1H-pyrazol-4-yl)pyridin-2-yl)-4-(3-fluorophenyl)piperidin-4-ol]
1 to 10 µM	> 100 µM	Cn1cc(-c2cc(N3CCC(O)(c4cccc(F)c4)CC3)cc(-c3cnn(C)c3)n2)cn1 [Example 61, 1-(2,6-bis(1-methyl-1H-pyrazol-4-yl)pyridin-4-yl)-4-(3-fluorophenyl)piperidin-4-ol]
< 0.1 µM	10 to 100 µM	Cc1nn(C)c(C)c1-c1cncc(N2CCC(O)(c3ccc(F)c(F)c3)CC2)n1 [Example 62, 4-(3,4-difluorophenyl)-1-(6-(1,3,5-trimethyl-1H-pyrazol-4-yl)pyrazin-2-yl)piperidin-4-ol]
< 0.1 µM	1 to 10 µM	CCn1cc(-c2cncc(N3CCC(O)(c4ccc(F)c(F)c4)CC3)n2)c(C)n1 [Example 63, 4-(3,4-difluorophenyl)-1-(6-(1-ethyl-3-methyl-1H-pyrazol-4-yl)pyrazin-2-yl)piperidin-4-ol]
1 to 10 µM	> 100 µM	O=C(NCCc1ccccc1)c1cncc(N2CCC(O)(c3ccc(F)cc3)CC2)n1 [Example 64, 6-(4-(4-fluorophenyl)-4-hydroxypiperidin-1-yl)-N-phenethylpyrazine-Z-carboxamide]
> 10 µM	> 100 µM	O=C(NCc1ccncc1)c1cncc(N2CCC(O)(c3ccc(F)cc3)CC2)n1 [Example 65, 6-(4-(4-fluorophenyl)-4-hydroxypiperidin-1-yl)-N-(pyridin-4-ylmethyl)pyrazine-2-carboxamide]
> 10 µM	> 100 µM	O=C(NCc1ccccn1)c1cncc(N2CCC(O)(c3ccc(F)cc3)CC2)n1 [Example 66, 6-(4-(4-fluorophenyl)-4-hydroxypiperidin-1-yl)-N-(pyridin-2-ylmethyl)pyrazine-2-carboxamide]
> 10 µM	> 100 µM	CN1CCN(C(=O)c2cncc(N3CCC(O)(c4ccc(F)cc4)CC3)n2)CC1 [Example 67, (6-(4-(4-fluorophenyl)-4-hydroxypiperidin-1-yl)pyrazin-2-yl)(4-methylpiperazin-1-yl)methanone]
1 to 10 µM	> 100 µM	O=C(NCCc1ccccn1)c1cncc(N2CCC(O)(c3ccc(F)cc3)CC2)n1 [Example 68, 6-(4-(4-fluorophenyl)-4-hydroxypiperidin-1-yl)-N-(2-(pyridin-2-yl)ethyl)pyrazine-2-carboxamide]
> 10 µM	> 100 µM	COCCNC(=O)c1cncc(N2CCC(O)(c3ccc(F)cc3)CC2)n1 [Example 69, 6-(4-(4-fluorophenyl)-4-hydroxypiperidin-1-yl)-N-(2-methoxyethyl)pyrazine-2-carboxamide]
> 10 µM	> 100 µM	CN(C)CCCNC(=O)c1cncc(N2CCC(O)(c3ccc(F)cc3)CC2)n1 [Example 70, N-(3-(dimethylamino)propyl)-6-(4-(4-fluorophenyl)-4-hydroxypiperidin-1-yl)pyrazine-2-carboxamide]
